Results reported in US20230295260A1, “GLP RECEPTOR AGONISTS” (HEPTARES THERAPEUTICS LIMITED, priority 2020, published 2023).
Entries after “also recorded” stand apart in the source; their conditions may differ. Non-standard residues stand in square brackets, D forms with d. Residues, ends and D or L forms follow the SMILES beside them. *: point of attachment. Malonyl(2,2-Me2,histaminyl) = CC(C)(C(=O)NCCc1cnc[nH]1)C(=O)*; Ala(1H-tetrazol-5-yl) = N[C@@H](Cc1nnn[nH]1)C(=O)O; Nle = CCCC[C@H](N)C(=O)O; Alloc = C=CCOC(=O)*

Legend:
C57BL/6J male mice [1] = experiment: Dose response effect on intestinal mass in normal mice, 7 day dosing (FIG. 2); assay type: in vivo, mouse; details: daily sc
Method: The enhancement of the small bowel wet weight (over vehicle) is plotted as a function of the peptide dose. […] N=6 animals I grp.
C57BL/6J male mice (Charles River, Italy, ~8 weeks) are randomly allocated to the treatment group based on the baseline body weights. Animals are given free access to food and water during the whole duration of the study. Mice are dosed daily with the vehicle or test peptides via subcutaneous injection. On day 7, animals are sacrificed and segments from the upper small intestine (15 cm segment from the pylorus) are collected and weighed (see Example B).

human GLP2 receptor = molecular target: T1, human GLP2 receptor (Homo sapiens, UniProt O95838); experiment: cAMP accumulation assay (HTRF), functional agonism of human GLP2 receptor in HEK cells; details: for Emax: HEK293, read-out: Human GLP-2R agonist cAMP Emax;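 for all read-outs here: HEK cells transduced via BacMam to express human GLP2 receptor, agonist-stimulated cAMP measured by HTRF after 45 min at 37 °C in HBSS with 0.5 mM IBMX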
T1 sequence (O95838 1-553): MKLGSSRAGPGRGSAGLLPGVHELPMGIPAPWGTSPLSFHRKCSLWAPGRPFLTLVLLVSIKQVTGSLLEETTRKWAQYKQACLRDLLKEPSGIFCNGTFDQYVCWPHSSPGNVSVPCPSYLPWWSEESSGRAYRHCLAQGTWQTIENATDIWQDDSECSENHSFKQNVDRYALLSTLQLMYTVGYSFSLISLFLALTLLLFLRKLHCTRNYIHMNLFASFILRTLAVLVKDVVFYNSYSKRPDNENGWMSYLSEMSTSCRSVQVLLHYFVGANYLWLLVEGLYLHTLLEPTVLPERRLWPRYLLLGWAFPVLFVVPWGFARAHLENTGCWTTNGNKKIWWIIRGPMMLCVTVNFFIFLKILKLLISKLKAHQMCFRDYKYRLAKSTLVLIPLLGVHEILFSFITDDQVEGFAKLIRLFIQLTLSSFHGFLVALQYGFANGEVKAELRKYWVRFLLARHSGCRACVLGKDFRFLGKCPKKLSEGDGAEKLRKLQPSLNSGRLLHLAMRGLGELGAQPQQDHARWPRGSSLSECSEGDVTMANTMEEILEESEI
Method: (§1) The functional activity of the peptides were assessed using a HTRF cAMP assay. pEC50 values are quoted.
(§2) cAMP production upon agonist stimulation of human GLP2 or GLP1 receptor was assessed utilizing HiRange cAMP kit (Cisbio). In brief, HEK cells were infected with either human GLP2 or GLP1 receptor BacMam virus for 24 hours and frozen for later use in the assay. […] Cells were prepared in the assay buffer (HBSS (Lonza) supplemented with 0.5 mM IBMX (Tocris)). After 45 min incubation at 37° C., the reaction was stopped by addition of the HTRF detection reagents in the lysis buffer provided in the kit.

human GLP1 receptor = molecular target: T2, human GLP1 receptor (Homo sapiens, UniProt P43220); experiment: cAMP accumulation assay (HTRF), functional agonism of human GLP1 receptor in HEK cells; assay type: cell-based; details: HEK cells, human GLP1 receptor BacMam, 45 min 37° C.; for Emax: HEK293, read-out: Human GLP-1R agonist cAMP Emax; for EC50: read-out: Human GLP-1R agonist cAMP pEC50 (converted)
T2 construct: expressed in transfected cells; host or cells: HEK cells, BacMam virus transduction
T2 sequence (P43220 24-463): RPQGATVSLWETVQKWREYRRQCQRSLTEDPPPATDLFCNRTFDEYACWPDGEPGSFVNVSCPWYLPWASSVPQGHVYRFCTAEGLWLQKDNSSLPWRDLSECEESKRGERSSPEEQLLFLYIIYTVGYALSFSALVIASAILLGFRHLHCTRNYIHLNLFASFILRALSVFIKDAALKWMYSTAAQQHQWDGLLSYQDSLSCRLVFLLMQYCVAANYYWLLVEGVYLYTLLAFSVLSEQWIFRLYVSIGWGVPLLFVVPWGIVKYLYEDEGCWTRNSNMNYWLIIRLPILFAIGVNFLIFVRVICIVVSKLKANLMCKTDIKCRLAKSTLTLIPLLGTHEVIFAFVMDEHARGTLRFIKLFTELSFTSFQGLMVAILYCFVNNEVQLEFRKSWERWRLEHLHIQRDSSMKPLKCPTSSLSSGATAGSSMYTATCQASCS
Method: as §1, §2

mouse GLP2 receptor = molecular target: T3, mouse GLP2 receptor (Mus musculus, UniProt Q5IXF8); experiment: cAMP accumulation assay (HTRF), functional agonism of mouse GLP2 receptor in HEK cells; assay type: cell-based; details: HEK cells transiently transfected, 45 min 37° C.; for Emax: HEK293, read-out: Mouse GLP-2R agonist cAMP Emax; for EC50: read-out: Mouse GLP-2R agonist cAMP pEC50 (converted)
T3 construct: expressed in transfected cells; host or cells: HEK cells, transient transfection with GeneJuice
T3 sequence (Q5IXF8 1-512): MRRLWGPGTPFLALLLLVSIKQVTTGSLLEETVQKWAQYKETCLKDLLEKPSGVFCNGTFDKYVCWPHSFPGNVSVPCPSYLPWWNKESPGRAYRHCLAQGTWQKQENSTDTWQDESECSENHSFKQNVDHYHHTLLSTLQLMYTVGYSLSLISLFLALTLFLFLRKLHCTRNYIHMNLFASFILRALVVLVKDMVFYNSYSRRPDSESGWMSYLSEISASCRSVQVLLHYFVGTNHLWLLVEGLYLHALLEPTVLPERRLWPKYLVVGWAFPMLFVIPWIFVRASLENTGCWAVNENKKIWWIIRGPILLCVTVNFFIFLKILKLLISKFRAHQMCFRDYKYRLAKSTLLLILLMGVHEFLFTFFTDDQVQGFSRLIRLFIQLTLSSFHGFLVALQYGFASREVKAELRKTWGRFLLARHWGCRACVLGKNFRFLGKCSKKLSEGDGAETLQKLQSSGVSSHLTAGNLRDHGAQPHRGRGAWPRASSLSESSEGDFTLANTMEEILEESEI

mouse GLP1 receptor = molecular target: T4, mouse GLP1 receptor (Mus musculus, UniProt O35659); experiment: cAMP accumulation assay (HTRF), functional agonism of mouse GLP1 receptor in HEK cells; assay type: cell-based; details: HEK cells transiently transfected, 45 min 37° C.; for Emax: HEK293, read-out: Mouse GLP-1 R agonist cAMP Emax; for EC50: read-out: Mouse GLP-1 R agonist cAMP pEC50 (converted)
T4 construct: expressed in transfected cells; host or cells: HEK cells, transient transfection with GeneJuice
T4 sequence (O35659 22-463): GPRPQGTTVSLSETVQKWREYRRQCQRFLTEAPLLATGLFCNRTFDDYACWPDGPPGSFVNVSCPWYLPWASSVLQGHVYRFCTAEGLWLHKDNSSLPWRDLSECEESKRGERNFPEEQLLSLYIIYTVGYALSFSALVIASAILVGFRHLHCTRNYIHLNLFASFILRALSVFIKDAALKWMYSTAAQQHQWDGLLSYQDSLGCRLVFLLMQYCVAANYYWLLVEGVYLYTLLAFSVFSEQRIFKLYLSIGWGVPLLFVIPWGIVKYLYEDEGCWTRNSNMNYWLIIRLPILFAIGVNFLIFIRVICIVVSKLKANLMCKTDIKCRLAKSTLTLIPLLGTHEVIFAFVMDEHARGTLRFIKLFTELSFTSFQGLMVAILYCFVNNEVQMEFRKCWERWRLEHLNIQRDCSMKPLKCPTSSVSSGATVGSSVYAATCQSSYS

C57BL/6J male mice [2] = experiment: Effect on intestinal wet weight in normal mice (FIG. 1); assay type: in vivo, mouse; details: once daily sc 270 nmol/kg (liraglutide iv 200 ug/kg), sacrificed on day 3, vs. vehicle
Method: Mice were sacrificed on day 3 and the wet weight of the small intestine was quantified. GLP-2 active peptides show significant enhancement of the small intestinal weight. […] N=6 animals / grp. *p < 0.05 vs. vehicle
C57BL/6J male mice (Charles River, Italy, ~8 weeks) are randomly allocated to the treatment group based on the baseline body weights. Animals are given free access to food and water during the whole duration of the study. Mice are dosed daily with the test compounds via subcutaneous injection. […] The abdominal cavity will be opened and the intestinal tissue is excised carefully to avoid perforation. Tissue from the upper small intestine (15 cm segment from the pylorus) is collected. The bowel is cleaned by flushing through with ice cold PBS to remove any feces.

C57BL/6J male mice [3] = experiment: Effect on glucose tolerance (OGTT) in normal mice (FIG. 3); assay type: in vivo, mouse; details: mice fasted 6 h, 270 nmol/kg sc 1 hour before 2 g/kg oral glucose (liraglutide 200 ug/kg iv)
Method: One hour before glucose challenge, Example 1 or 3 (270 nmol/kg) or vehicle (0.1% Tween80 in PBS) was administered as a single subcutaneous injection. […] Serial blood glucose measurements were taken at baseline and at timepoints post oral glucose challenge. (A) Time course of blood glucose levels. N=6 animals / grp. Mean +/-SEM.
C57BL/6J male mice (Charles River, Italy, ~8w) are fasted for 6 hours on the day of testing with free access to drinking water. Prior to drug dosing, pre-dose blood glucose measurements are taken using a glucometer (ACCU-CHEK performa, Roche Diagnostic GmbH). Animals are dosed with either the vehicle (0.1% Tween80 in PBS) or compound (270 nmol/kg) via subcutaneous injection. […] 1 hour after dosing, mice are given 2 g/kg oral gavage of glucose and blood is sampled at defined time points for analysis of blood glucose levels. Timepoints of sampling: t=0 (prior to glucose dosing), 15 mins, 30 mins, 60 mins, 120 mins and 180 mins.

SMILES	enhancement of small bowel wet weight (over vehicle) as a function of dose (C57BL/6J male mice [1])	EC50 (human GLP2 receptor) [nM]	Emax (human GLP2 receptor) [%]	Emax (human GLP1 receptor) [%]	EC50 (human GLP1 receptor) [nM]	Emax (mouse GLP2 receptor) [%]	EC50 (mouse GLP2 receptor) [nM]	Emax (mouse GLP1 receptor) [%]	EC50 (mouse GLP1 receptor) [nM]	wet weight of the small intestine (C57BL/6J male mice [2])	peak blood glucose concentration in OGTT (C57BL/6J male mice [3])
C=CCOC(=O)NCCCC[C@H](NC(=O)[C@H](CC(C)C)NC(=O)[C@H](CC(=O)O)NC(=O)[C@H](CC(C)C)NC(=O)[C@@H](NC(=O)[C@@H](NC(=O)[C@@H](Cc1ccccc1)NC(=O)[C@H](CCCC)NC(=O)[C@H](CCC(=O)O)NC(=O)[C@H](CC(=O)O)NC(=O)[C@H](CO)NC(=O)[C@H](Cc1ccccc1)NC(=O)[C@H](CO)NC(=O)CNC(=O)[C@H](Cc1nn[nH]n1)NC(=O)C(C)(C)C(=O)NCCc1c[nH]cn1)[C@@H](C)O)[C@@H](C)CC)C(=O)N[C@@H](C)C(=O)N[C@@H](C)C(=O)N[C@@H](CCCCN)C(=O)N[C@@H](CC(=O)O)C(=O)N[C@@H](Cc1ccccc1)C(=O)N[C@H](C(=O)N[C@@H](CC(N)=O)C(=O)N[C@@H](Cc1c[nH]c2ccccc12)C(=O)N[C@@H](CC(C)C)C(=O)N[C@H](C(=O)N[C@@H](CCC(N)=O)C(=O)N[C@H](C(=O)N[C@@H](CCCCN)C(=O)N[C@H](C(=O)N[C@H](C(=O)N[C@@H](CC(=O)O)C(N)=O)[C@@H](C)O)[C@@H](C)CC)[C@@H](C)O)[C@@H](C)CC)[C@@H](C)CC [Example 1] ({Malonyl(2,2-Me2,histaminyl)}-[Ala(1H-tetrazol-5-yl)]GSFSDE[Nle][dF]TILDLK(Alloc)AAKDFINWLIQTKITD-NH2)	greater maximal enhancements in small intestinal wet weight compared to Teduglutide; also recorded: dose dependent enhancements in the wet weight of the small intestine	0.01	102	94.1	3.16	102	0.2	95.9	3.16	superior enhancements in intestinal weight compared to Teduglutide; also recorded: Significant enhancement of intestinal wet weight	significantly reduced
CCCC[C@H](NC(=O)[C@H](CCC(=O)O)NC(=O)[C@H](CC(=O)O)NC(=O)[C@H](CO)NC(=O)[C@H](Cc1ccccc1)NC(=O)[C@H](CO)NC(=O)CNC(=O)[C@H](CC(=O)O)NC(=O)CNC(=O)[C@@H](N)Cc1cnc[nH]1)C(=O)N[C@H](Cc1ccccc1)C(=O)N[C@H](C(=O)N[C@H](C(=O)N[C@@H](CC(C)C)C(=O)N[C@@H](CC(=O)O)C(=O)N[C@@H](CC(C)C)C(=O)N[C@@H](CC(C)C)C(=O)N[C@@H](C)C(=O)N[C@@H](C)C(=O)N[C@@H](CCCNC(=N)N)C(=O)N[C@@H](CC(=O)O)C(=O)N[C@@H](Cc1ccccc1)C(=O)N[C@H](C(=O)N[C@@H](CC(N)=O)C(=O)N[C@@H](Cc1c[nH]c2ccccc12)C(=O)N[C@@H](CC(C)C)C(=O)N[C@H](C(=O)N[C@@H](CCC(N)=O)C(=O)N[C@H](C(=O)N[C@@H](CCCCN)C(=O)N[C@H](C(=O)N[C@H](C(=O)N[C@@H](CC(=O)O)C(N)=O)[C@@H](C)O)[C@@H](C)CC)[C@@H](C)O)[C@@H](C)CC)[C@@H](C)CC)[C@@H](C)CC)[C@@H](C)O [FE-203799, reference compound] (H-HGDGSFSDE[Nle][dF]TILDLLAARDFINWLIQTKITD-NH2)	–	0.0158	101	61.4	158	98.1	0.0316	53.4	> 50.1	–	–
CC[C@H](C)[C@H](NC(=O)[C@H](Cc1ccccc1)NC(=O)[C@H](CC(=O)O)NC(=O)[C@H](CCCNC(=N)N)NC(=O)[C@H](C)NC(=O)[C@H](C)NC(=O)[C@H](CC(C)C)NC(=O)[C@H](CC(N)=O)NC(=O)[C@H](CC(=O)O)NC(=O)[C@H](CC(C)C)NC(=O)[C@@H](NC(=O)[C@@H](NC(=O)[C@H](CC(N)=O)NC(=O)[C@H](CCSC)NC(=O)[C@H](CCC(=O)O)NC(=O)[C@H](CC(=O)O)NC(=O)[C@H](CO)NC(=O)[C@H](Cc1ccccc1)NC(=O)[C@H](CO)NC(=O)CNC(=O)[C@H](CC(=O)O)NC(=O)CNC(=O)[C@@H](N)Cc1c[nH]cn1)[C@@H](C)O)[C@@H](C)CC)C(=O)N[C@@H](CC(N)=O)C(=O)N[C@@H](Cc1c[nH]c2ccccc12)C(=O)N[C@@H](CC(C)C)C(=O)N[C@H](C(=O)N[C@@H](CCC(N)=O)C(=O)N[C@H](C(=O)N[C@@H](CCCCN)C(=O)N[C@H](C(=O)N[C@H](C(=O)N[C@@H](CC(=O)O)C(=O)O)[C@@H](C)O)[C@@H](C)CC)[C@@H](C)O)[C@@H](C)CC [Teduglutide, reference compound]	dose dependent enhancements in the wet weight of the small intestine	–	101	60.3	316	100	0.00794	1	> 794	Significant enhancement of intestinal wet weight	–
